Experimental data: paper PMC9862759 (Viruses, 2023)
Like-named read-outs stand apart in the source and are kept apart here.

Legend:
HEK 293 cells = test: MTT cytotoxicity on human normal cell line HEK 293 (24 h); assay type: cell-based; conditions: Homo sapiens, HEK293, 24 h, read-out: IC50 Values of Human Normal Cell Lines, HEK 293
SARS-CoV-2 pseudovirus [1] = test: microbe, parasite or virus in culture; conditions: Severe acute respiratory syndrome-related coronavirus, read-out: IC50 (inhibition of pseudovirus entry into host cells)
LO2 cells = test: MTT cytotoxicity on human normal cell line LO2 (24 h); assay type: cell-based; conditions: Homo sapiens, L02, 24 h, read-out: IC50 Values of Human Normal Cell Lines, LO2
SARS-CoV-2 pseudovirus [2] = conditions: for IC50: read-out: IC50 (inhibition of pseudovirus entry into host cells)
HEK-293T-ACE2^h cells = test: MTT cytotoxicity assay on host cells (4 h); assay type: cell-based, human; conditions: MTT, 4 h
Beas-2B cells = test: MTT cytotoxicity on human normal cell line Beas-2B (24 h); assay type: cell-based; conditions: Homo sapiens, BEAS-2B, 24 h, read-out: IC50 Values of Human Normal Cell Lines, Beas-2B

Row | SMILES | IC50 (HEK 293 cells) | IC50 (SARS-CoV-2 pseudovirus [1]) | IC50 (LO2 cells) | SI (ratio of TC50 to IC50) (SARS-CoV-2 pseudovirus [2]) | CC0 (maximum nontoxic concentration) (HEK-293T-ACE2^h cells) | TC50 (concentration reducing cell viability by 50%) (HEK-293T-ACE2^h cells) | IC50 (Beas-2B cells) | IC50 (SARS-CoV-2 pseudovirus [2])
1 | O=C(O)[C@H]1O[C@@H](Oc2cc3oc(-c4ccccc4)cc(=O)c3c(O)c2O)[C@H](O)[C@@H](O)[C@@H]1O [compound 12, Baicalin] | > 500 µM | 110 ± 11 µM | > 500 µM | >4.56 | 300 µM | >500 µM | > 500 µM | –
2 | COc1c(O[C@@H]2O[C@H](C(=O)O)[C@@H](O)[C@H](O)[C@H]2O)cc(O)c2c(=O)cc(-c3ccccc3)oc12 [compound 13, Wogonoside] | > 500 µM | 119 ± 21 µM | > 500 µM | >4.20 | 300 µM | >500 µM | > 500 µM | –
3 | O=c1c(O[C@@H]2O[C@H](CO)[C@@H](O)[C@H](O)[C@H]2O)c(-c2ccc(O)cc2)oc2cc(O)cc(O)c12 [compound 17, Astragalin] | > 500 µM | 133 ± 16.2 µM | > 500 µM | >3.76 | 300 µM | >500 µM | > 500 µM | –
4 | O=c1c(O[C@@H]2O[C@H](CO)[C@@H](O)[C@H](O)[C@H]2O)c(-c2ccc(O)c(O)c2)oc2cc(O)cc(O)c12 [compound 18, Isoquercitrin] | > 500 µM | 94.4 ± 1.59 µM | > 500 µM | >5.30 | 300 µM | >500 µM | > 500 µM | –
5 | O=c1c(O[C@@H]2O[C@H](CO)[C@H](O)[C@H](O)[C@H]2O)c(-c2ccc(O)c(O)c2)oc2cc(O)cc(O)c12 [compound 19, Hyperoside] | > 500 µM | 83.1 ± 10.7 µM | > 500 µM | >6.02 | 300 µM | >500 µM | > 500 µM | –
6 | C[C@@H]1O[C@@H](OC[C@H]2O[C@@H](Oc3c(-c4ccc(O)c(O)c4)oc4cc(O)cc(O)c4c3=O)[C@H](O)[C@@H](O)[C@@H]2O)[C@H](O)[C@H](O)[C@H]1O [compound 20, Rutin] | > 500 µM | 147 ± 21.1 µM | > 500 µM | >3.40 | 300 µM | >500 µM | > 500 µM | –
7 | Oc1cc(O)c2c(c1)O[C@H](c1ccc(O)c(O)c1)[C@H](O)C2 [compound 22, (-)-Epicatechin] | > 500 µM | 146 ± 20.8 µM | > 500 µM | >3.43 | 300 µM | >500 µM | > 500 µM | –
8 | Oc1cc(O)c2c(c1)O[C@H](c1cc(O)c(O)c(O)c1)[C@H](O)C2 [compound 23, (-)-Epigallocatechin] | > 500 µM | 74.2 ± 10.7 µM | 483.3 ± 1.52 µM | 6.11 | 200 µM | 453.10 ± 4.55 µM | 369 ± 1.7 µM | –
9 | O=C(O[C@@H]1Cc2c(O)cc(O)cc2O[C@@H]1c1ccc(O)c(O)c1)c1cc(O)c(O)c(O)c1 [compound 24, (-)-Epicatechin gallate] | > 500 µM | 58.8 ± 3.25 µM | > 500 µM | >8.51 | 300 µM | >500 µM | > 500 µM | –
10 | O=C(O[C@@H]1Cc2c(O)cc(O)cc2O[C@@H]1c1cc(O)c(O)c(O)c1)c1cc(O)c(O)c(O)c1 [compound 25, (-)-Epigallocatechin gallate] | > 500 µM | < 50 µM | 430 ± 6.98 µM | – | 300 µM | >500 µM | > 500 µM | 31.3 ± 7.4 µM
11 | O=C(O[C@@H]1Cc2c(O)cc(O)cc2O[C@H]1c1cc(O)c(O)c(O)c1)c1cc(O)c(O)c(O)c1 [compound 26, (-)-Gallocatechin gallate] | > 500 µM | < 50 µM | 433 ± 8.96 µM | >11.52 | 300 µM | >500 µM | > 500 µM | 43.4 ± 2.93 µM
12 | Oc1cc(O)c2c(c1)O[C@H](c1ccc(O)c(O)c1)[C@H](O)[C@H]2c1c(O)cc(O)c2c1O[C@H](c1ccc(O)c(O)c1)[C@@H](O)C2 [compound 27, Procyanidin B-1] | – | > 300 µM | – | – | 300 µM | >500 µM | – | –
13 | Oc1cc(O)c2c(c1)O[C@H](c1ccc(O)c(O)c1)[C@H](O)[C@H]2c1c(O)cc(O)c2c1O[C@H](c1ccc(O)c(O)c1)[C@H](O)C2 [compound 28, Procyanidin B-2] | – | > 300 µM | – | – | 300 µM | >500 µM | – | –
14 | Oc1cc(O)c2c(c1)O[C@H](c1ccc(O)c(O)c1)[C@@H](O)[C@@H]2c1c(O)cc(O)c2c1O[C@H](c1ccc(O)c(O)c1)[C@@H](O)C2 [compound 29, Procyanidin B-3] | – | > 300 µM | – | – | 300 µM | >500 µM | – | –
